Laboratory results from US20180318311A1, “TRICYCLIC 2-QUINOLINONES AS ANTIBACTERIALS” (priority 2017, published 2018).
Values after ≈ are worked out from the molar mass of the structure shown. Where two headings read alike, the source gives them in different places.

Legend:
Assay type in all cases: cell-based
[1] = tested on: E. faecalis ATCC 29212 (NB04001); test: MIC by broth microdilution, E. faecalis NB04001; settings: Enterococcus faecalis, ATCC29212, CAMHB, 35° C., 20 hours, read-out: Antibacterial activity (MIC) NB04001
Description: (§1) Bacterial isolates were cultivated from −80° C. frozen stocks by overnight passages at 35° C. in ambient air on Mueller-Hinton agar plates (MHA, Becton Dickinson, Franklin Lakes, NB) with the exception of S. pneumoniae which was grown overnight at 35° C. in the presence of 5% CO2 on blood agar plates (tryptic soy agar with 5% sheep blood (Thermo Scientific, Waltham, Mass.) . The following quality control and wild type strains were obtained from the American Type Culture Collection (ATCC; Rockville, Md.) and are coded in the Novartis strain collection as indicated: E. coli ATCC 25922 (NB27001), E. faecalis ATCC 29212 (NB04001), S. aureus ATCC 49951 (NB01006) and S. pneumoniae ATCC […] (NB07001). […] P. aeruginosa NB52019, obtained from Queen's University (Kingston, Ontario, Canada), is the wild-type PAO1 strain.
(§2) Minimal Inhibitory Concentrations (MIC) were determined by the broth microdilution method in accordance with Clinical and Laboratories Institute (CLSI) guidelines. In brief, fresh bacterial overnight cultures were re-suspended in sterile saline, adjusted to a 0.5 McFarland turbidity standard and then diluted to yield a final inoculum of approximately 5×10^5 colony-forming units (CFU)/mL. All bacterial suspensions were prepared in cation adjusted Mueller-Hinton Broth (CAMHB; Becton Dickinson, Franklin Lakes, N.J.;) with the exception of S. pneumoniae which was prepared in CAMHB supplemented with 5% lysed horse blood (Hardy Diagnostics, Santa Maria, Calif.). Two-fold serial dilutions of compounds were prepared in 100% dimethyl sulfoxide (DMSO) at 100-fold the highest final assay concentration; the resulting dilution series of compounds were diluted 1:10 with sterile water. Ten μL of the drug dilution series in 10% DMSO was transferred to microtiter wells and 90 μL of bacterial suspension was inoculated into the wells. All inoculated microdilution trays were incubated in ambient air at 35° C. for 20 hours. Following incubation, assay plates were read in a microtiter plate reader at 600 nm and visually inspected to confirm the MIC endpoint well with the OD value. The lowest concentration of the compound that prevented visible growth was recorded as the MIC (in μg/mL).

[2] = tested on: S. pneumoniae ATCC 25922 (NB07001); test: MIC by broth microdilution, S. pneumoniae NB07001; settings: Streptococcus pneumoniae, read-out: Antibacterial activity (MIC) NB07001
Description: as §1, §2

[3] = tested on: P. aeruginosa NB52019, wild-type PAO1 strain; test: MIC by broth microdilution, P. aeruginosa NB52019; settings: Pseudomonas aeruginosa, CAMHB, 35° C., 20 hours, read-out: Antibacterial activity (MIC) NB52019
Description: as §1, §2

[4] = tested on: S. aureus ATCC 49951 (NB01006); test: MIC by broth microdilution, S. aureus NB01006; settings: Staphylococcus aureus, ATCC49951, CAMHB, 35° C., 20 hours, read-out: Antibacterial activity (MIC) NB01006
Description: as §1, §2

[5] = tested on: E. coli ATCC 25922 (NB27001); test: MIC by broth microdilution, E. coli NB27001; settings: Escherichia coli, ATCC25922, CAMHB, 35° C., 20 hours, read-out: Antibacterial activity (MIC) NB27001
Description: as §1, §2

[6] = tested on: S. aureus NB01006-AVR005, gyrA (S84L), grlA (580F) and grlB (E471K); test: microbe, parasite or virus in culture; settings: Staphylococcus aureus, 20 h, read-out: Antibacterial activity (MIC) NB01006-AVR005
Description: as §1, §2

[7] = tested on: S. aureus NB01080 fluoroquinolone-resistant clinical isolate; test: MIC by broth microdilution, S. aureus NB01080; settings: Staphylococcus aureus, CAMHB, 35° C., 20 hours, read-out: Antibacterial activity (MIC) NB01080
Description: as §1, §2

[8] = ATCC25922, S. pneumoniae, CAMHB supplemented with 5% lysed horse blood, 35° C., 20 hours

Row | SMILES | MIC [1] [µg/mL] | MIC ([2]; ATCC25922, 20 h) [µg/mL] | MIC [3] [µg/mL] | MIC [4] [µg/mL] | MIC [5] [µg/mL] | MIC [6] [µg/mL] | MIC [7] [µg/mL] | MIC [2, 8] [µg/mL]
1 | C[C@H]1COc2c(N3CCC(CNC4CC4)C3)c(F)cc3cc(C(=O)O)c(=O)n1c23 (mixture of isomers) [Example 1.11, (3S)-10-(3-((cyclopropylamino)methyl)pyrrolidin-1-yl)-9-fluoro-3-methyl-5-oxo-2,3-dihydro-5H-[1,4]oxazino[2,3,4-ij]quinoline-6-carboxylic acid] | 1 to 32 | < 1 | > 32 | 1 to 32 | 1 to 32 | > 32 | 1 to 32 | 
2 | C[C@H]1COc2c(N3CC4C(N)C4C3)c(F)cc3cc(C(=O)O)c(=O)n1c23 (mixture of isomers) [Example 1.38, (3S)-10-(6-amino-3-azabicyclo[3.1.0]hexan-3-yl)-9-fluoro-3-methyl-5-oxo-2,3-dihydro-5H-[1,4]oxazino[2,3,4-ij]quinoline-6-carboxylic acid] | 1 to 32 | 1 to 32 | 1 to 32 | < 1 | < 1 | > 32 | 1 to 32 | 
3 | C[C@H]1COc2c(N3CCC(C4CC4N)CC3)c(F)cc3cc(C(=O)O)c(=O)n1c23 (mixture of isomers) [Example 1.64, (3S)-10-(4-(2-aminocyclopropyl)piperidin-1-yl)-9-fluoro-3-methyl-5-oxo-2,3-dihydro-5H-[1,4]oxazino[2,3,4-ij]quinoline-6-carboxylic acid] | 1 to 32 | 1 to 32 | > 32 | 1 to 32 | > 32 | > 32 | > 32 | 
4 | C[C@H]1COc2c(N3CCC4NCCCC4C3)c(F)cc3cc(C(=O)O)c(=O)n1c23 (mixture of isomers) [Example 1.65, (3S)-9-fluoro-3-methyl-10-(octahydro-1,6-naphthyridin-6(2H)-yl)-5-oxo-2,3-dihydro-5H-[1,4]oxazino[2,3,4-ij]quinoline-6-carboxylic acid] | > 32 | 1 to 32 | > 32 | 1 to 32 | 1 to 32 | > 32 | > 32 | 
5 | C[C@H]1COc2c(N3CC4C(C3)C4N(C)C)c(F)cc3cc(C(=O)O)c(=O)n1c23 (mixture of isomers) [Example 1.69, (3S)-10-(6-(dimethylamino)-3-azabicyclo[3.1.0]hexan-3-yl)-9-fluoro-3-methyl-5-oxo-2,3-dihydro-5H-[1,4]oxazino[2,3,4-ij]quinoline-6-carboxylic acid] | > 32 | 1 to 32 | > 32 | 1 to 32 | > 32 | > 32 | > 32 | 
6 | C[C@H]1COc2c(N3CCCC4(CCN(C)C4)C3)c(F)cc3cc(C(=O)O)c(=O)n1c23 (mixture of isomers) [Example 1.70, (3S)-9-fluoro-3-methyl-10-(2-methyl-2,7-diazaspiro[4.5]decan-7-yl)-5-oxo-2,3-dihydro-5H-[1,4]oxazino[2,3,4-ij]quinoline-6-carboxylic acid] | > 32 | 1 to 32 | > 32 | 1 to 32 | > 32 | > 32 | > 32 | 
7 | C[C@H]1COc2c(N3CCCC4(CCNC4)C3)c(F)cc3cc(C(=O)O)c(=O)n1c23 (mixture of isomers) [Example 1.71, (3S)-9-fluoro-3-methyl-5-oxo-10-(2,7-diazaspiro[4.5]decan-7-yl)-2,3-dihydro-5H-[1,4]oxazino[2,3,4-ij]quinoline-6-carboxylic acid] | > 32 | > 32 | > 32 | > 32 | > 32 | > 32 | > 32 | 
8 | O=C(O)c1cn(C2CC2)c2cc(N3CCNCC3)c(F)cc2c1=O [CIP, Ciprofloxacin, reference compound] | < 1 | < 1 | < 1 | < 1 | < 1 |  |  | 
9 | COC(=O)c1cc2cc(F)c(N3CC[C@@H](C4(N)CC4)C3)c3c2n(c1=O)[C@@H](C)CO3 [Example 1.7, Methyl (S)-10-((R)-3-(1-aminocyclopropyl)pyrrolidin-1-yl)-9-fluoro-3-methyl-5-oxo-2,3-dihydro-5H-[1,4]oxazino[2,3,4-ij]quinoline-6-carboxylate] | < 1 | < 1 |  | < 1 | > 32 | 1 to 32 (≈ 2.49 to 79.7 µM) | < 1 | 
10 | C[C@H]1COc2c(N3CCC(F)(CN)C3)c(F)cc3c(CN)cc(=O)n1c23.O=C(O)C(F)(F)F (stereo partly drawn) [Example 7.1, (3S)-7-(aminomethyl)-10-(3-(aminomethyl)-3-fluoropyrrolidin-1-yl)-9-fluoro-3-methyl-2,3-dihydro-5H-[1,4]oxazino[2,3,4-ij]quinolin-5-one trifluoroacetate salt] |  |  | 1 to 32 |  | 1 to 32 | 1 to 32 | 1 to 32 | < 1
11 | C[C@H]1COc2c(N3CC[C@H](N)C3)c(F)cc3c(CN)cc(=O)n1c23 [Example 7.2, (S)-7-(aminomethyl)-10-((S)-3-aminopyrrolidin-1-yl)-9-fluoro-3-methyl-2,3-dihydro-5H-[1,4]oxazino[2,3,4-ij]quinolin-5-one] |  | 1 to 32 (≈ 3.01 to 96.3 µM) | 1 to 32 (≈ 3.01 to 96.3 µM) |  | 1 to 32 (≈ 3.01 to 96.3 µM) | 1 to 32 (≈ 3.01 to 96.3 µM) | > 32 | 
12 | C[C@@H]1COc2c(N3CCC(F)(CN)C3)c(F)cc3c(CN)cc(=O)n1c23 (stereo partly drawn) [Example 7.3, (3R)-7-(aminomethyl)-10-(3-(aminomethyl)-3-fluoropyrrolidin-1-yl)-9-fluoro-3-methyl-2,3-dihydro-5H-[1,4]oxazino[2,3,4-ij]quinolin-5-one] |  | > 32 | > 32 |  | > 32 | > 32 | > 32 | 
13 | C[C@@H]1COc2c(N3CCNCC3)c(F)cc3c(CN)cc(=O)n1c23 [Example 7.4, (R)-7-(aminomethyl)-9-fluoro-3-methyl-10-(piperazin-1-yl)-2,3-dihydro-5H-[1,4]oxazino[2,3,4-ij]quinolin-5-one] |  |  | > 32 |  | > 32 | > 32 | > 32 | > 32
14 | NCc1cc(=O)n2c3c(c(N4CCC(F)(CN)C4)c(F)cc13)OCC2 (stereo not shown) [Example 7.5, 7-(aminomethyl)-10-(3-(aminomethyl)-3-fluoropyrrolidin-1-yl)-9-fluoro-2,3-dihydro-5H-[1,4]oxazino[2,3,4-ij]quinolin-5-one] |  | > 32 | > 32 |  | > 32 | > 32 | > 32 | 
15 | N#Cc1cc(=O)n2c3c(c(N4CCC(F)(CN)C4)c(F)cc13)OCC2 (stereo not shown) [Example 7.6, 10-(3-(aminomethyl)-3-fluoropyrrolidin-1-yl)-9-fluoro-5-oxo-2,3-dihydro-5H-[1,4]oxazino[2,3,4-ij]quinoline-7-carbonitrile] |  | > 32 | > 32 |  | > 32 | > 32 | 1 to 32 (≈ 2.89 to 92.4 µM) | 
16 | NCc1cc(=O)n2c3c(c(N4CCNCC4)c(F)cc13)OCC2 [Example 7.7, 7-(aminomethyl)-9-fluoro-10-(piperazin-1-yl)-2,3-dihydro-5H-[1,4]oxazino[2,3,4-ij]quinolin-5-one] |  |  | > 32 |  | > 32 | > 32 | > 32 | > 32
17 | N#Cc1cc(=O)n2c3c(c(N4CCNCC4)c(F)cc13)OCC2 [Example 7.8, 9-fluoro-5-oxo-10-(piperazin-1-yl)-2,3-dihydro-5H-[1,4]oxazino[2,3,4-ij]quinoline-7-carbonitrile] |  |  | > 32 |  | > 32 | > 32 | > 32 | > 32
